The structures appear in SMILES notation.

What is called Ki is the equilibrium dissociation constant of an inhibitor or competing ligand from its target. Higher therefore signals a looser hold on the target.

The target of the experiment is Histamine H3 receptor (Macaca mulatta, UniProt G7N499). Briefly: Radioligand Binding Assay. The source says: The compounds of this invention have been demonstrated to displace [3H]- methylhistamine radioligand binding to mammalian cell membranes expressing rhesus (Macacca Mulatta) H3 receptor. Additionally, the compounds of this invention have been demonstrated by GTPγS radioligand binding assay to inhibit rhesus H3 constitutive functional activity in cell membranes.
Chain of Histamine H3 receptor (G7N499 whole entry): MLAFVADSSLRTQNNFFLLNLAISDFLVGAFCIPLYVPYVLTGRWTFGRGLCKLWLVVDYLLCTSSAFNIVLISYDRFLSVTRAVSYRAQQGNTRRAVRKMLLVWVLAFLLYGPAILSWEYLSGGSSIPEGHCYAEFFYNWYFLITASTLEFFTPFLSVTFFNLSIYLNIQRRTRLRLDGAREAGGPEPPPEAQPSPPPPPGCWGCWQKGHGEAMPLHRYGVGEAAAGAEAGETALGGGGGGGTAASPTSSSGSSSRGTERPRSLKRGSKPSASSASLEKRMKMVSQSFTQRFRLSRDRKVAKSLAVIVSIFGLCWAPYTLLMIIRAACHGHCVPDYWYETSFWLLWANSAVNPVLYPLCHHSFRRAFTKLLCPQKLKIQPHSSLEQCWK

On to `C[C@H]1CCCN1C1CCN(c2ccc(N3CCC4(CCN(C(=O)OC(C)(C)C)CC4)C3=O)c(F)c2)CC1` [US8604046, 79], for which the Ki came out at 0.3 nM.

(Values after BindingDB's records for patent US8604046 (Sanofi, 2013).)
